According to patent publication US9556202B2, “Sulfonamide derivatives and methods of use thereof for improving the pharmacokinetics of a drug” (MERCK SHARP & DOHME CORP., priority 2012, dated 2017):

Legend:
human CYP11B1 = target: T1, human CYP11B1 (Homo sapiens, UniProt P15538); assay: IC50 vs CYP11B1 by cortisol synthesis in V79 cells (HTRF); format: cell-based; conditions: V79 cells expressing human CYP11B1, 1500 nM RSS, test conc. 0.5-10000 nM, unit inferred
T1 construct: expressed in transfected cells
T1 sequence (P15538 25-503): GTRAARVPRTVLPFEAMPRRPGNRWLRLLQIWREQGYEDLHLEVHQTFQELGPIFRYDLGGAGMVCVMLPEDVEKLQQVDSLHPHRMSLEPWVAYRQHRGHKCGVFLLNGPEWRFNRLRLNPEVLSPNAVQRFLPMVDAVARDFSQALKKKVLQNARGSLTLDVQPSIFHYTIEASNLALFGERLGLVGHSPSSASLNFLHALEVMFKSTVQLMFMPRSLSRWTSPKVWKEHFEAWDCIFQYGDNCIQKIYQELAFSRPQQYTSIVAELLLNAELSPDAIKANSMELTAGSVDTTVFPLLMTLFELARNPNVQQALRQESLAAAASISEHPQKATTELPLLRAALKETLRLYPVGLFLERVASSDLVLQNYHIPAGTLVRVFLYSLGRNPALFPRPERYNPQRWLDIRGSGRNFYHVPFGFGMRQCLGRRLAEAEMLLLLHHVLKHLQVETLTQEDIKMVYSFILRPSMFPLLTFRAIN
Description: Determination of IC50 Vs CYP11B1/CYP11B2 by Measurement of Cortisol/Aldosterone Synthesis
This assay was performed in a standard 384-well plate design using cultured V79 cells stably expressing human CYP11B1 or human CYP11B2. Test compounds at 10 concentrations (for example, 10000, 3333.3, 1111.1, 370.4, 123.5, 41.2, 13.7, 4.6, 1.5 and 0.5 nM) were added in 384-well plate after the cell-seeding procedure. The incubation substrate contains 1500 nM RSS for CYP11B1 assay/750 nM DOC for CYP11B2 assay. The Cortisol/Aldosterone production of cell culture supernatant was determined by Cortisol/Aldosterone HTRF kit after for about 15 hours incubation at RT (protect from light). IC50 values were calculated from the percent inhibition observed for each test compound at 10 concentrations.
The assay plate was read using Envision (Perkin Elmer, Waltham, Mass.) at 665 nm and 590 nm (using Filter Barcode of 217#, 205#; Mirror Barcode of 446#).
Data are analyzed using Assay Data Analyzer. All ratio data (665 nm/590 nm) are back calculated according to the standard curve, resulting in Cortisol/Aldosterone concentrations. IC50 values are reported as the Inflection Point (IP) of a four parameter fit of the titration data.
The following equation was used to calculate the % inhibition: % Activity=100×{1−(Sample_back calculated Cortisol/Aldosterone concentration−LC_back calculated Cortisol/Aldosterone concentration)/(HC_back calculated Cortisol/Aldosterone concentration−LC_back calculated Cortisol/Aldosterone concentration)} Curve Fitting: Four Parameter Logistic: […]

CYP1A2 = target: T2, CYP1A2 (Homo sapiens, UniProt P05177); assay: Cocktail CYP inhibition assay in human liver microsomes, phenacetin O-deethylation; format: in vitro ADME; conditions: human liver microsomes 0.1 mg/mL, 10 μM phenacetin, 10 min 37° C.; test conc. up to 10 μM; unit inferred
T2 construct: 0.1 mg/mL protein human liver microsomes (BD Gentest); tissue BD Gentest; host or cells: human liver microsomes
T2 sequence (P05177 1-516): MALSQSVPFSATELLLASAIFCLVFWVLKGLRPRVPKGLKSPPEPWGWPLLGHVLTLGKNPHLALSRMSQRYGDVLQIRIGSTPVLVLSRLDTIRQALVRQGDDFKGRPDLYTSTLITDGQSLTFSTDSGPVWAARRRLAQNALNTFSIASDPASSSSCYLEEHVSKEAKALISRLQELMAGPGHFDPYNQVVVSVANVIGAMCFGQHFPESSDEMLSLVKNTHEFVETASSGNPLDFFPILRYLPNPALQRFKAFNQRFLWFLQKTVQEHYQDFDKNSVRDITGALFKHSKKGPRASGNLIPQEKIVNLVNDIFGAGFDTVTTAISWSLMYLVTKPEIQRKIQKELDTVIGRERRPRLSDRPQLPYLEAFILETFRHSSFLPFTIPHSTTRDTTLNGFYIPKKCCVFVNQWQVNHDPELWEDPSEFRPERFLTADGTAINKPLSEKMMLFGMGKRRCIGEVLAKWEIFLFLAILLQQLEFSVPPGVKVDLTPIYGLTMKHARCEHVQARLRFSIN
Description: Determination of IC50 in a Cocktail Assay for CYPs 1A2, 2C9, 2C19, 2D6 and 3A4
This assay was performed in a standard 96-well plate design. IC50 values were calculated from the percent inhibition observed for each test compound at 6 concentrations (for example, 0.0032, 0.016, 0.08, 0.4, 2 and 10 μM). The incubation substrate mix contains 10 μM phenacetin (1A2), 5 μM diclofenac (2C9), 30 μM mephenytoin (2C19), 5 μM dextromethorphan (2D6) and 2 μM midazolam (3A4), 0.1 mg/mL protein human liver microsomes (BD Gentest), 1 mM NAPDH, 3.3 mM MgCl2 and 100 mM potassium phosphate buffer (pH 7.4). The production of the metabolite of each probe substrate was determined after incubation for 10 min at 37° C. Quantitation of the metabolite peak area ratio against an internal standard (tolbutamide) was determined by LC/MS/MS analysis following acetonitrile treatment of the incubations.
Samples were analyzed in the MRM mode with a SCIEX API-4000 mass spectrometer (Applied Biosystems, Foster City, Calif.), with a Shimadzu LC-20 AD pump (Shimadzu corporation, Kyoto, JP) and a CTC PAL autosampler (Agilent Technologies, Switzerland). A Phenomenex, Luna, 5 μm, 100 A, 2.00×30 mm HPLC column was used for the separation. The mobile phases were: (A) 0.1% formic acid in water and (B) 0.1% formic acid in acetonitrile. The binary gradient was as follows.
The peak area ratio of the analyte to the internal standard was used to quantify the metabolite. The values of peak area ratios in the presence of test compound were compared to those of maximum or minimum controls and were expressed as % inhibition by interpolating between the maximum and minimum peak area ratios. Incubations with no inhibitor were defined as the maxima.
The following equation was used to calculate the % inhibition: [1−[(X−Low control)/(High control−Low control)]]*100
For the IC50 calculation, SigmaPlot was used to plot the mean % inhibition versus the test compound concentrations and for non-linear regression analysis of the data. […]

SMILES | IC50 (human CYP11B1) [nM] | IC50 (CYP1A2) [nM]
COCC(c1cncn1[C@H](C)c1ccc(F)cc1)N1CCN(S(=O)(=O)c2cnc(N3CCN(C)CC3)s2)CC1 (single isomer, unassigned) [Compound 35] | 2180 | > 10000
COCCC(c1cncn1[C@H](C)c1ccc(F)cc1)N1CCN(S(=O)(=O)c2cnc(N3CCN(C)CC3)s2)CC1 (single isomer, unassigned) [Compound 36] | 1350 | > 10000
C[C@H](c1ccc(F)cc1)n1cncc1C1CCCC2CN(S(=O)(=O)c3cnc(Nc4ccccn4)s3)CCN21 (single isomer, unassigned) [Compound 38] | 2140 | > 10000
